Patent US20140024683A1, “CHLORIDE CHANNEL AND CHLORIDE TRANSPORTER MODULATORS FOR THERAPY IN SMOOTH MUSCLE DISEASES” (priority 2011, published 2014)

How the values were obtained:
[1] = tested on: human airway smooth muscle cells; experiment: MQAE fluorescence assay of intracellular chloride; assay type: cell-based
Experimental: To determine whether blockade of CaCCs or NKCCs induce changes in intracellular chloride concentrations in human airway smooth muscle cells, the MQAE in vitro fluorescent dye assay (Invitrogen) was used. Briefly, human airway smooth muscle cells were grown to 100% confluence in 96-well black-walled plates. Cells were loaded overnight with 10 mM MQAE in serum-free basal cell culture medium (M199, Invitrogen) and were washed once with warmed (37° C.) normal-chloride buffer [consisting of (in mM) 130 sodium chloride, 2 CaCl2, 1 MgCl2, 10 D-glucose, and 10 HEPES, pH 7.4]. […] An increase in fluorescence represents decreased intracellular chloride (removal of halide quenching of MQAE) while decreased fluorescence represents increased intracellular chloride (enhanced halide quenching of MQAE).

[2] = tested on: human airway smooth muscle strips; experiment: Organ bath force, acetylcholine-induced contractions of human airway smooth muscle strips after pretreatment; settings: 100 μM, separate blockade (alone)
Experimental: Human muscle tissue was acquired from excess lung airways trimmed during surgery from healthy lung transplant donors. Acquired tissue was stored overnight at 20° C. Airway smooth muscle contractions measured ex vivo in organ baths were performed as previously described (Gallos et al., 2008; Gallos et al., 2009, Gallos et al., 2011; Gleason et al., 2010; Yim et al., 2011; Mitzuta et al., 2008). Closed guinea pig tracheal rings or strips of human airway smooth muscle (tracheal or main stem bronchus) were suspended in organ baths, which had 95% oxygen constantly perfusing through Dulbecco's Modified Eagle Medium. Rings were cut on the cartilaginous borders of the smooth muscle. The epithelial layer was dissected under microscopic assistance. […]
Following equilibration, in guinea pig experiments, the capsaicin analog N-vanillylnonanamide (10 μM final) was added to the organ baths to first activate and then deplete nonadrenergic, noncholinergic nerves. […] To avoid bias between treatment groups, tissues were contracted to individually calculated EC50 values for acetylcholine and tissues with similar Emax values were randomly assigned to treatments within individual experiments. […]

[3] = tested on: human airway smooth muscle cells; experiment: FLIPR membrane potentiometric dye assay (Example 21); assay type: cell-based
Experimental: Immortalized airway smooth muscle cell lines modified to stably express human telomerase reverse transcriptase were a kind gift from Dr. William Gerthoffer (University of Southern Alabama, Mobile, Ala.) prepared as described previously (Gosens et al., 2006) and grown in Dulbecco's Modified Eagle's Medium/F12 media (GIBCO, Grand Island, N.Y.), with 10% FBS and antibiotics.
Immortalized human airway smooth muscle cells were cultured on black-walled 96 well plates to 100% confluence, and were washed four times with warmed (37° C.) assay buffer of the following composition (in mM): NaCl 140, KCl 4.7, CaCl2 2.5, MgCl2 1.2, HEPES 11, D-glucose 10. A stock solution (100% dye) of FLIPR blue dye was prepared by reconstitution of 1 vial (125 mg) with 100 ml assay buffer. A 50% working stock was prepared by further diluting the reconstituted blue dye 1:1 with assay buffer and was used to load cells (90 μl/well) over 45 min at 37° C. in a humidified cell culture incubator (95% air/5% CO2). All reagents were dissolved in assay buffer. Fluorescence was measured with a Flex Station 3 (Molecular Devices) using an excitation wavelength of 530 nm, emission wavelength of 565 nm and a cutoff filter of 550 nm. Baseline fluorescence was measured every 2 seconds for 1 minute then for 2 minutes after injection of vehicle or compound of interest as indicated (using the Flexstation's 3 integrated injection capabilities).
Human airway smooth muscle cells were incubated with FLIPR membrane potentiometric dye to assess if the chloride channel blockers changed membrane potential at the cellular level. FLIPR fluorescence will increase with depolarization, and decrease with hyperpolarization. […] Therefore, chloride channel blockade, but not NKCC blockade, hyperpolarized human airway smooth muscle cells.

SMILES | intracellular chloride (MQAE fluorescence) ([1]; 10 μM bumetanide) | intracellular chloride (MQAE fluorescence) ([1]; 10 μM bumetanide, listed as Bumetanide) | effect on acetylcholine-induced contraction [2] | change in membrane potential (FLIPR) ([3]; 10 μM bumetanide) | intracellular chloride (MQAE fluorescence) ([1]; 100 μM niflumic acid) | membrane potential, continuous fluorescence recording (representative tracing) [3] | change in relative fluorescent units (membrane potential, FLIPR) ([3]; 100 μM, n=12)
CCCCNc1cc(C(=O)O)cc(S(N)(=O)=O)c1Oc1ccccc1 [bumetanide] | impairs chloride entry | decreases [Cl^−]i | does not significantly reduce contraction | did not cause a significant change | – | – | –
O=C(O)c1cccnc1Nc1cccc(C(F)(F)F)c1 [niflumic acid] | – | – | does not significantly reduce contraction | – | increases intracellular chloride | hyperpolarize | −254.7+/−37 RFU
